≈ marks a conversion by molar mass, not a printed value. Where two headings read alike, the source gives them in different places.
Columns and labels:
CYP 2C19 = CYP 2C19 (Homo sapiens, UniProt P33261); test: CYP inhibition 2C19; type: in vitro ADME
CYP 3A4 = CYP 3A4 (Homo sapiens, UniProt P08684); test: CYP inhibition 3A4; type: in vitro ADME
[1] = Stability in mouse microsomes; type: in vitro ADME
CYP 1A2 = target: T1, CYP 1A2 (Homo sapiens, UniProt P05177); test: CYP inhibition 1A2; type: in vitro ADME
T1 sequence (P05177 1-516): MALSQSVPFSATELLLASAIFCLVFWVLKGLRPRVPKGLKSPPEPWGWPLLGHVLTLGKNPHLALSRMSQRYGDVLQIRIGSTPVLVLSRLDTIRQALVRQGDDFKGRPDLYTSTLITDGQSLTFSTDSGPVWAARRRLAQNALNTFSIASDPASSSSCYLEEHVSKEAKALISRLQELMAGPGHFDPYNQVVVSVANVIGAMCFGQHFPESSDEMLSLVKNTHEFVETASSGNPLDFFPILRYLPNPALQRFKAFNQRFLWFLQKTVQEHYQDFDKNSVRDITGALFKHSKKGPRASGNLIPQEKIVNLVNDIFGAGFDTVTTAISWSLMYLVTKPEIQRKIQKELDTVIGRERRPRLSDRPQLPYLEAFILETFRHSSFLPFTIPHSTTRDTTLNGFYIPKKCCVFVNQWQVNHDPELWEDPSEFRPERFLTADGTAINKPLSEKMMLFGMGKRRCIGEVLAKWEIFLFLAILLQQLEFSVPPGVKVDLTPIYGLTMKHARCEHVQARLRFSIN

[2] = Stability in human microsomes; type: in vitro ADME
[3] = HPLC based lipophilicity assay (CHI LogD); type: physicochemical; conditions: CHI values by reverse phase HPLC transformed to a LogD scale
CYP 2D6 = CYP 2D6 (Homo sapiens, UniProt P10635); test: CYP inhibition 2D6; type: in vitro ADME
Chain of CYP 2D6 (P10635 whole entry): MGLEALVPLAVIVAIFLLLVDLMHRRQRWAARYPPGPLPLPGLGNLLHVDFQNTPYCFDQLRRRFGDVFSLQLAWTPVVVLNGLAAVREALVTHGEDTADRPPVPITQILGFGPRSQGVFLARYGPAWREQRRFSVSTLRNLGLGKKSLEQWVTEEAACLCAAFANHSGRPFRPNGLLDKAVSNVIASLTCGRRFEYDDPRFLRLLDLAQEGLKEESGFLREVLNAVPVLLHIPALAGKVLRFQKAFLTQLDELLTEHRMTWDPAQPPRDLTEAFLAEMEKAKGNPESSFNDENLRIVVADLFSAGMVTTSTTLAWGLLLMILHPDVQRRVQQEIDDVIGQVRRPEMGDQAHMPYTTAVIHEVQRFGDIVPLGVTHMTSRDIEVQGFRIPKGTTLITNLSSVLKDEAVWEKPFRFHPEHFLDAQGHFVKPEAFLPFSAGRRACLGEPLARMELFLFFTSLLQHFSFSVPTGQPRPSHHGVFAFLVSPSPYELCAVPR

[4] = tested on: sirtuin mediated deacetylation of acetyl-p65; test: Acetyl-p65 assay in U2OS cells (AlphaScreen); type: cell-based; conditions: FIG. 6
Description: In certain embodiments, U2OS cells were counted by hemocytometer and diluted to a concentration of 1.5×10^5 cell/ml. BacMam p65 and BacMam p300-HAT viruses were added to the diluted cells at 1% and 1% (vol/vol). 40 μl aliquots of the cell suspensions containing the viruses were plated onto a 384 well plate with a multi-drop dispenser. After 7 hours, a 2-fold serial dilution of Compounds 25, 28 and Compound 4, hereafter referred to as the test compounds, was carried out in DMSO. The test compounds were subsequently diluted with medium (20-fold) in an intermediate compound plate, and 4 μL of each test compound was transferred by a liquid handler from the intermediate plate to a cell plate. 24 hours post viral transduction, the medium in the cell plate was removed by inverting and flicking the plate, and blotting the plate with paper towels. 30 μl of lysis buffer (25 mM HEPES pH 7.4, 0.5% Triton X-100, 1 mg/ml Dextran 500, 0.1% BSA, 300 mM NaCl, 2 mM MgCl2, 1×protease inhibitor cocktail) was added to each well to lyse the cells. After incubation of the cells with lysis buffer for 30 minutes at room temp, 10 μl and 3 μl aliquots of the cell lysates were transferred to assay plates, and the assay plate containing 3 μl aliquot of cell lysates was diluted with an additional 7 μl of lysis buffer to obtain a final volume of 10 μl. Acetyl-p65 and total p65 protein in cell lysates were measured using the AlphaScreen assay format (PerkinElmer). The antibodies used to detect acetyl-p65 protein were biotinylated anti-HA antibody (Roche, 12158167001) and anti-acetylated K310-p65 antibody (Abcam, ab19870). The antibodies used to detect total p65 protein were biotinylated anti-HA antibody (Roche, 12158167001) and anti-p65 antibody (Santa Cruz, sc109). […] After incubating the plates for another 2 hrs in the dark, the plates were read by a PHERAstar microplate reader. […]

SIRT2 [5] = target: T2, SIRT2 (Homo sapiens, UniProt Q8IXJ6); test: SIRT2 deacetylation of Trp 5-mer peptide, OAADPr mass spec assay; type: biochemical; parameters: His-SIRT2(1-389)
T2 sequence (Q8IXJ6 1-389): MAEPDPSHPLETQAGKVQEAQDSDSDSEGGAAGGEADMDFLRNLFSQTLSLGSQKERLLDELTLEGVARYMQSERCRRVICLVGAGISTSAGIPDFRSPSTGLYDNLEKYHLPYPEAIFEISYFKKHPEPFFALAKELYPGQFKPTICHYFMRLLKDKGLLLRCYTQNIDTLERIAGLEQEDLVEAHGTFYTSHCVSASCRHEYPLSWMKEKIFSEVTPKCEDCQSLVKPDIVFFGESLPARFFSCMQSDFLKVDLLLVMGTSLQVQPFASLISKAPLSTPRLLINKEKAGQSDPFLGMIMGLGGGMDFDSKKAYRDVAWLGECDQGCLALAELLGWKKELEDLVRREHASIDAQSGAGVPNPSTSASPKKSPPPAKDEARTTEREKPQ

[6] = Kinetic solubility by chemi-luminescent nitrogen detection (CLND); type: physicochemical; conditions: aqueous buffer, kinetic from dmso stock, DMSO stock incubated 1 hr in phosphate buffered saline pH 7.4, filtered
SIRT1 [7] = target: T3, SIRT1 (Homo sapiens, UniProt Q96EB6); test: SIRT1 deacetylation of Trp 5-mer peptide, OAADPr mass spec assay
T3 sequence (Q96EB6 1-747): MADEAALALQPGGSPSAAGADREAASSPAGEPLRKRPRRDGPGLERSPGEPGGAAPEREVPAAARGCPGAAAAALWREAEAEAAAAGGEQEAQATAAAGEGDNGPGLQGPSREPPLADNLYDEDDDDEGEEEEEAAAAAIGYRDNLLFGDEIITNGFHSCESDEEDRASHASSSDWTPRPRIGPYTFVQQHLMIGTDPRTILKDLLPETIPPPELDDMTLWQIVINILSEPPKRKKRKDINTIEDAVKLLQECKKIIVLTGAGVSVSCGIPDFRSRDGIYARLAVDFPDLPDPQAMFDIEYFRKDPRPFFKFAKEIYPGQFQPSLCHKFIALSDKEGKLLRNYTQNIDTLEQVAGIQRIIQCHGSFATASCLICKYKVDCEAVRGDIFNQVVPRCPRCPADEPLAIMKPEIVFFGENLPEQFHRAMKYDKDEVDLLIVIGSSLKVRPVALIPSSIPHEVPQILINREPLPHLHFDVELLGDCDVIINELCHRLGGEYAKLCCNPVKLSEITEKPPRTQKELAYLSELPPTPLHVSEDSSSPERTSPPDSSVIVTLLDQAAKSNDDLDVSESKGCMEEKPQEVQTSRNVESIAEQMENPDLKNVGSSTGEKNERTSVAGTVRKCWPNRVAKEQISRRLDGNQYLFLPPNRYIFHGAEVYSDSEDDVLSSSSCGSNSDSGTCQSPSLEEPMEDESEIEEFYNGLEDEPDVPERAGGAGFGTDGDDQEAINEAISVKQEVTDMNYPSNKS
Description: (§1) All assays were performed at room temperature in reaction buffer (50 mM HEPES, pH 7.5, 150 mM NaCl, 1 mM DTT, 0.05% BSA). […] To prepare the assays for analysis, 20 μL of reaction volume was mixed in 80 μL of 50:50 acetonitrile:methanol mixture. […] Peak data was integrated using RapidFire Integrator software (Agilent, Santa Clara, Calif.).

SIRT2 [8] = target: T2, SIRT2; conditions: at 1 mM; Galli et al. (2012); cited from earlier work
SIRT1 [9] = target: T3, SIRT1; conditions: at 1 mM; Galli et al. (2012); cited from earlier work
SIRT3 = target: T4, SIRT3 (Homo sapiens, UniProt Q9NTG7); test: SIRT3 deacetylation of Trp 5-mer peptide, OAADPr mass spec assay
T4 sequence (Q9NTG7 102-399): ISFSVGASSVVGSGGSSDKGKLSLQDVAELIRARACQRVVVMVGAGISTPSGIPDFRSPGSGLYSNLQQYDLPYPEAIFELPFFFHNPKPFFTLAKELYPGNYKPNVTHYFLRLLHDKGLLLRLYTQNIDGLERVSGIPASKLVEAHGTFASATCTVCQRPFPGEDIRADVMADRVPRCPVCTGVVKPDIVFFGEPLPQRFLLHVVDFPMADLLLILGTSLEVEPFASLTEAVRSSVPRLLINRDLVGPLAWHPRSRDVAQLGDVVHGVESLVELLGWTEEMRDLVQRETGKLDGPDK
Description: as §1

SIRT1/2/3 = SIRT1/2/3 biochemical assay, statements spanning all three enzymes; parameters: species or system human; conditions: for SIRT1/2/3 inhibitory activity, in words: across SIRT1, SIRT2 and SIRT3
[10] = Trp 5-mer peptide and NAD at KM, mean of at least three determinations, read-out: IC50 (μM) SIRT2
[11] = Trp 5-mer peptide, class symbols, read-out: Trp SIRT2_IC50
[12] = Trp SIRT1_IC50, Trp 5-mer peptide, class symbols
[13] = read-out: IC50 (μM) SIRT1, Trp 5-mer peptide and NAD at KM, mean of at least three determinations
[14] = Trp SIRT2_IC50, Trp 5-mer peptide, class symbols
[15] = Trp SIRT3_IC50, Trp 5-mer peptide, class symbols
[16] = read-out: IC50 (μM) SIRT3, Trp 5-mer peptide and NAD at KM, mean of at least three determinations

Chain of CYP 2C19 (P33261 whole entry): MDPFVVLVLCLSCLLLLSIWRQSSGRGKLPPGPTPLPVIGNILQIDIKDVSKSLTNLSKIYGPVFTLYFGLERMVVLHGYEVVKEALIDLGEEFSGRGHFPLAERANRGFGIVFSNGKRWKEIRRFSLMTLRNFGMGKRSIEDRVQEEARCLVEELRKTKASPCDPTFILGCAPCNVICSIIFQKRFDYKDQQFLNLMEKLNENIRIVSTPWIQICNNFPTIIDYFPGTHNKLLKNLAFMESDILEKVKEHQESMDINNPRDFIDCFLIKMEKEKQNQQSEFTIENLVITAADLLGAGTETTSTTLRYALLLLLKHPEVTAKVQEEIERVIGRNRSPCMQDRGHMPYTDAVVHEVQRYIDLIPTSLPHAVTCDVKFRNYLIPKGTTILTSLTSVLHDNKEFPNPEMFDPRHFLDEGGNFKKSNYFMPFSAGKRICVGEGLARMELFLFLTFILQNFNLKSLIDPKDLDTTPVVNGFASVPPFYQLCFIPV
Chain of CYP 3A4 (P08684 whole entry): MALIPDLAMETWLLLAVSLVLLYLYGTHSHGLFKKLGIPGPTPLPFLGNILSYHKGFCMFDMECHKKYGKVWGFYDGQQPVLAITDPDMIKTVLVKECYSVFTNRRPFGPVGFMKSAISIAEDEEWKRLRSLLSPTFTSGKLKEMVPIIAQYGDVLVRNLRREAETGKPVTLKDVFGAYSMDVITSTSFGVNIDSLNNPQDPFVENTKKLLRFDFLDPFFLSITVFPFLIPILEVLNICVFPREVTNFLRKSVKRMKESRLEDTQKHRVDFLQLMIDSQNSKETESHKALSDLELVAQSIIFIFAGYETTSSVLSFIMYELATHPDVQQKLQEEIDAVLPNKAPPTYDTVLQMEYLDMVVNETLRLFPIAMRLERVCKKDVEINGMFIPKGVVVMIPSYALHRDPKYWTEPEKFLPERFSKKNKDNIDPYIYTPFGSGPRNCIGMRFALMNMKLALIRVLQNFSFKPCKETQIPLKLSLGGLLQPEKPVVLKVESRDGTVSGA

Row | SMILES | inhibition of sirtuin mediated deacetylation of acetyl-p65 [4] | IC50 (SIRT2 [5]; [10]) | IC50 (SIRT1 [7]; [12]) | IC50 (SIRT1 [7]; [13]) | IC50 (SIRT2 [5]; [14]) | IC50 (SIRT3; [15]) | other results
1 | CC(C)(C)C(=O)NCCC1CCN(c2ncnc3cc(C(N)=O)sc23)CC1 [Compound 28, 4-(4-(2-pivalamidoethyl)piperidin-1-yl)thieno[3,2-d]pyrimidine-6-carboxamide] | inhibit | 0.01 µM | < 1 µM | 0.015 µM |  |  | CYP 2C19 (CYP 2C19): > 50 µM; CYP 3A4 (CYP 3A4): > 50 µM; Mouse CLint [1]: 12.7 µL/min/mg; CYP 1A2 (CYP 1A2): > 50 µM; Human CLint [2]: 15.8 µL/min/mg; LogD [3]: 2.73; CYP 2D6 (CYP 2D6): > 50 µM; IC50 (SIRT2 [5]; [11]): < 1 µM; solubility at 1 hr [6]: 297 µM (≈ 116 µg/mL)
2 | CC(=S)NCCC1CCN(c2ncnc3cc(C(N)=O)sc23)CC1 [Compound 25, 4-(4-(2-ethanethioamidoethyl)piperidin-1-yl)thieno[3,2-d]pyrimidine-6-carboxamide] | inhibit | 0.03 µM | < 1 µM | 0.056 µM | < 1 µM |  | 
3 | c1cncc(-c2c[nH]nn2)c1 [3-(1H-1,2,3-triazol-4-yl)pyridine] |  |  |  |  |  |  | SIRT2 activity remaining (SIRT2 [8]): 92%; SIRT1 activity remaining (SIRT1 [9]): 88%
4 | CC(C)(C)C(=O)NCCC1CCN(c2nccc3cc(C(N)=O)sc23)CC1 [Compound 38, 7-(4-(2-pivalamidoethyl)piperidin-1-yl)thieno[2,3-c]pyridine-2-carboxamide] |  | 0.3 µM | < 1 µM | 0.49 µM |  | 1 to 10 µM | IC50 (SIRT3; [16]): 2.1 µM; IC50 (SIRT2 [5]; [11]): < 1 µM; fold reduction in SIRT1/2/3 potency (SIRT1/2/3; compared to Compound 28, range across the three enzymes): 30-63 fold
5 | NC(=O)C1CCCc2c1[nH]c1ccc(Cl)cc21 (stereo not drawn) [4, EX-527, EX-527, reference compound] | inhibit |  |  |  |  |  | 
6 | NC(=O)c1cc2ncnc(N3CCCCC3)c2s1 [Compound 21, 4-(Piperidin-1-yl)thieno[3,2-d]pyrimidine-6-carboxamide] |  | 1.4 µM | > 10 µM | 15 µM | 1 to 10 µM | 1 to 10 µM | IC50 (SIRT3; [16]): 8.6 µM; SIRT1/2/3 inhibitory activity, in words (SIRT1/2/3): micromolar levels
7 | CCNc1ncnc2cc(C(N)=O)sc12 [Compound 22, 4-(Ethylamino)thieno[3,2-d]pyrimidine-6-carboxamide] |  | 49 µM | > 10 µM |  | > 10 µM | > 10 µM | IC50 (SIRT3; IC50 (μM) SIRT3, Trp 5-mer peptide and NAD at KM, mean of at least three determinations): > 50 µM; SIRT1/2/3 inhibitory activity, in words (SIRT1/2/3): not conserved; IC50 (SIRT1 [7]; IC50 (μM) SIRT1, Trp 5-mer peptide and NAD at KM, mean of at least three determinations): > 50 µM

— patent US20160002273A1, “THIENO[3,2-D]PYRIMIDINE-6-CARBOXAMIDES AND ANALOGUES AS SIRTUIN MODULATORS” (GLAXOSMITHKLINE LLC, priority 2013, published 2016)
